Results reported in patent US12161715B2, “EGFR targeted therapy” (priority 2011, dated 2024).

Experiment: Case 3: conventional drugs approved for neuropathic pain
Assay type: in vivo, human
Conditions: failed back surgery syndrome; pregabalin follow-up 19 weeks

Structure (SMILES) | NP response to conventional drug, Case 3
NCC1(CC(=O)O)CCCCC1 [gabapentin] | unsuccessfully treated
CC(C)C[C@H](CN)CC(=O)O [pregabalin] | responded
